# Data as given in patent US20250099448A1, “HETEROCYCLIC COMPOUNDS” (Hoffmann-La Roche Inc., priority 2022, published 2025).
# Target: T1, MAGL protein (Homo sapiens, UniProt Q99685)
# T1 sequence (Q99685 1-303): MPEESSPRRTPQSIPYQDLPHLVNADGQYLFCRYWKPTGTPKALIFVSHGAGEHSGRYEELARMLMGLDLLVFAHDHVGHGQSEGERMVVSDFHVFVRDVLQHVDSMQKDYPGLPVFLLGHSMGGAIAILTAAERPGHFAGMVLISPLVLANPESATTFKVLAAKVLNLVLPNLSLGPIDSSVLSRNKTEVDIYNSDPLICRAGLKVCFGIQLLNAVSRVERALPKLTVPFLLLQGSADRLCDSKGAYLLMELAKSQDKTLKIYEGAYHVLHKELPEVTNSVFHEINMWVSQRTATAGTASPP
# Test: 2-AG assay: MAGL inhibitory activity by hydrolysis of 2-arachidonoylglycerol to arachidonic acid, followed by mass spectrometry
# Type: biochemical
# Details: 8 μM 2-arachidonoylglycerol, 15 min preincubation, 30 min reaction at RT, RapidFire MS readout
# Summary of the method: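 Activity was measured by RapidFire SPE–triple-quad MS as the ratio of arachidonic acid to d8-arachidonic acid after 2-AG hydrolysis (8 μM substrate, 30 min, RT, acetonitrile quench). Compounds, tested from 12.5 μM down to […], were first preincubated 15 min with MAGL in TRIS/EDTA/Tween-20 buffer containing 2.5% DMSO.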
row,SMILES,IC50
1,O=C(N1CC(c2ccc(N3CC4(CCCC4)C3)nc2)C1)N1CC2(CC(c3nc(C4(O)CC4)n[nH]3)C2)C1 [compound 937],1.58 nM
2,O=C(N1CC2(CC(c3ccc(C(F)(F)F)nc3)C2)C1)N1CC2(CC(c3nc(C4(O)CC4)n[nH]3)C2)C1 [compound 829],38.4 nM
3,CS(=O)(=O)c1cc(F)ccc1CC1CC2(C1)CN(C(=O)N1CC3(CC(c4nnc(C5CC5)[nH]4)C3)C1)C2 [compound 24],0.7 nM
4,O=C(N1CC2(CCN(Cc3ncc(C(F)F)s3)CC2)C1)N1CC2(CC(c3nc(C4CC4)n[nH]3)C2)C1 [compound 507],5.84 nM
5,O=C(N1CC(CNS(=O)(=O)c2cccc(C(F)(F)F)c2)C1)N1CC2(CC(c3nnc(C4CC4)[nH]3)C2)C1 [compound 208],21.6 nM
6,O=C(N1CC2(CC(c3nnc(C4CC4)[nH]3)C2)C1)N1CC2(C1)CN(S(=O)(=O)c1ccc(F)cc1F)C2 [compound 105],21.3 nM
7,O=C(N1CC2(CCC(Cc3ncc(F)cc3F)CC2)C1)N1CC2(CC(c3nnc(C4(O)CC4)[nH]3)C2)C1 [compound 143],14.5 nM
8,O=C(N1CC2(CC(OCC3(C(F)(F)F)CC3)C2)C1)N1CC2(CC(c3nnc(C4CC4)[nH]3)C2)C1 [compound 68],5.36 nM
9,CS(=O)(=O)c1ccc(OC2CCC3(C2)CN(C(=O)N2CC4(CC(c5nnc(C6CC6)[nH]5)C4)C2)C3)cc1C(F)(F)F (racemic) [compound 155],1.99 nM
10,COc1cc(C#N)ccc1COC1CCN(C(=O)N2CC3(CC(c4nnc(C5CC5)[nH]4)C3)C2)CC1 [Example 861],59.6 nM
11,N#Cc1cc(CC2CC3(C2)CN(C(=O)N2CC4(CC(c5nc(C6CC(F)(F)C6)n[nH]5)C4)C2)C3)cc(C(F)(F)F)c1 [compound 579],24 nM
12,O=C(N1CC2(CCC(Cc3ccc(Cl)cn3)CC2)C1)N1CC2(CC(c3nnc(C4(O)CC4)[nH]3)C2)C1 [compound 139],3.87 nM
13,"O=C(N1CC(c2ccc([C@H]3C[C@H](C(F)F)C3)cc2)C1)N1CC2(CC(c3nnc(C4CC4)[nH]3)C2)C1 (single isomer, unassigned) [Example 304, Trans-[6-(5-Cyclopropyl-4H-1,2,4-triazol-3-yl)-2-azaspiro[3.3]heptan-2-yl]-[3-[4-[3-(difluoromethyl)cyclobutyl]phenyl]azetidin-1-yl]methanone]",0.18 nM
14,"O=C(c1cccc(F)c1)N1CCN(C(=O)N2CC3(CC(c4nnc(C5CC5)[nH]4)C3)C2)CC1 [Example 979, [4-[6-(5-cyclopropyl-4H-1,2,4-triazol-3-yl)-2-azaspiro[3.3]heptane-2-carbonyl]piperazino]-(3-fluorophenyl)methanone]",2940 nM
15,CC1(O)CN(c2ccc(C3CN(C(=O)N4CC5(CC(c6nnc(C7CC7)[nH]6)C5)C4)C3)cn2)C1 [compound 82],20.5 nM
16,O=C(N1CC2(CC(c3nnc(C4(O)CC4)[nH]3)C2)C1)N1CC2(C1)CN(S(=O)(=O)c1ccc(OC(F)(F)F)cc1)C2 [compound 92],44 nM
17,O=C(N1CC(c2ccc(NCC3(C(F)(F)F)CC3)nc2)C1)N1CC2(CC(c3nnc(C4(O)CC4)[nH]3)C2)C1 [compound 254],1.25 nM
18,O=C(N1CC2(CCC(Cc3ccc(C(F)(F)F)cn3)C2)C1)N1CC2(CC(c3nnc(C4CC4)[nH]3)C2)C1 (stereo not shown) [compound 50],0.19 nM
19,N#Cc1cc(CC2CC3(C2)CN(C(=O)N2CC4(CC(c5nnc(C6CC6)[nH]5)C4)C2)C3)cnc1C(F)(F)F [compound 833],0.39 nM
20,N#Cc1cc(CC2CC3(C2)CN(C(=O)N2CC4(CC(c5nnc(C6CC6)[nH]5)C4)C2)C3)ccc1C(F)(F)F [compound 26],0.02 nM
21,O=C(N1CC2(CC(Oc3ccc(C(F)(F)F)nc3)C2)C1)N1CC2(CC(c3nnc(C4(O)CC4)[nH]3)C2)C1 [compound 132],5.98 nM
22,O=C(N1CCC(NS(=O)(=O)c2ccc(C(F)(F)F)cc2)CC1)N1CC2(CC(c3nnc(C4CC4)[nH]3)C2)C1 [compound 248],676 nM
23,O=C(N1CC2(CCN(Cc3ccc(S(=O)(=O)C(F)(F)F)cc3)CC2)C1)N1CC2(CC(c3nnc(C4CC4)[nH]3)C2)C1 [compound 85],1.02 nM
24,O=C(N1CC(NCc2cc(C(F)(F)F)ccc2F)C1)N1CC2(CC(c3nnc(C4CC4)[nH]3)C2)C1 [compound 195],130 nM
25,O=C(N1CC2(CC(c3nnc(C4CC4)[nH]3)C2)C1)N1CC2(CN(Cc3cnn4ccccc34)C2)C1 [compound 887],5.98 nM
26,"NC(=O)[C@@H]1CCCN1c1ccc(C2CN(C(=O)N3CC4(CC(c5nnc(C6CC6)[nH]5)C4)C3)C2)cc1 [Example 397, (2S)-1-[4-[1-[6-(5-cyclopropyl-4H-1,2,4-triazol-3-yl)-2-azaspiro[3.3]heptane-2-carbonyl]azetidin-3-yl]phenyl]pyrrolidine-2-carboxamide]",2.42 nM
27,O=C(N1CC2(CC(Cc3cc(C(F)(F)F)ccn3)C2)C1)N1CC2(CC(c3ncn[nH]3)C2)C1 [compound 985],2990 nM
28,N=S(=O)(c1cccc(CC2CC3(C2)CN(C(=O)N2CC4(CC(c5ncn[nH]5)C4)C2)C3)c1)C(F)(F)F (stereo not shown) [compound 734],568 nM

row,SMILES,IC50
1,"Cn1c(CN2CC3(C2)CN(C(=O)N2CC4(CC(c5nc(C6CC6)n[nH]5)C4)C2)C3)nnc1C(F)(F)F [Example 958, [6-(3-cyclopropyl-1H-1,2,4-triazol-5-yl)-2-azaspiro[3.3]heptan-2-yl]-[6-[[4-methyl-5-(trifluoromethyl)-1,2,4-triazol-3-yl]methyl]-2,6-diazaspiro[3.3]heptan-2-yl]methanone]",152 nM
2,CC(C)Oc1nc(CC2CC3(C2)CN(C(=O)N2CC4(CC(c5nc(C6CC6)n[nH]5)C4)C2)C3)ccc1C(F)(F)F [compound 965],0.03 nM
3,O=C(N1CC2(CCC(Cc3ncc(F)cc3F)C2)C1)N1CC2(CC(c3nc(C4(O)CC4)n[nH]3)C2)C1 (stereo not shown) [compound 929],3.85 nM
4,CP(C)(=O)c1ccc(CC2CC3(C2)CN(C(=O)N2CC4(CC(c5nnc(C6CC6)[nH]5)C4)C2)C3)cc1 [compound 926],6.58 nM
5,O=C(N1CC2(CC(Cc3cncc(C(F)(F)F)c3)C2)C1)N1CC2(CC(c3nc(C4CC(F)(F)C4)n[nH]3)C2)C1 [compound 545],46.9 nM
6,O=C(N1CC2(CC(Cc3cc(F)cc(C(F)(F)F)c3)C2)C1)N1CC2(CC(c3nc(C4COC4)n[nH]3)C2)C1 [compound 742],2.18 nM
7,O=C(N1CC2(CCC(Cc3ccc(C(F)(F)F)nc3)C2)C1)N1CC2(CC(c3nnc(C4CC4)[nH]3)C2)C1 (stereo not shown) [compound 152],0.43 nM
8,O=C(N1CC(OCc2ccc(F)cc2Cl)C1)N1CC2(CC(c3nnc(C4CC4)[nH]3)C2)C1 [compound 320],8.28 nM
9,O=C(N1CC2(CCC(Oc3ncc(C(F)(F)F)cn3)CC2)C1)N1CC2(CC(c3nnc(C4CC4)[nH]3)C2)C1 [compound 134],1.89 nM
10,O=C(N1CC2(CCN(Cc3nc(C(F)(F)F)cs3)CC2)C1)N1CC2(CC(c3nc(C4CC4)n[nH]3)C2)C1 [compound 732],6.18 nM
11,O=C(N1CC2(CC(c3nc(C4CC4)n[nH]3)C2)C1)N1CC2(CN(Cc3cnn(C(F)(F)F)c3)C2)C1 [compound 513],31.9 nM
12,O=C(N1CC2(CC(Cc3ncc(F)cc3F)C2)C1)N1CC2(CC(c3nnc(C4CC4)[nH]3)C2)C1 [compound 115],0.2 nM
13,O=C(N1CC2(CC(Cc3cnc(C(F)(F)F)cn3)C2)C1)N1CC2(CC(c3nnc(C4CC4)[nH]3)C2)C1 [Example 3],0.69 nM
14,CC(C)(C)c1csc(CN2CC3(C2)CN(C(=O)N2CC4(CC(c5nc(C6CC6)n[nH]5)C4)C2)C3)n1 [compound 740],1.32 nM
15,"O=C(N1CC(c2ccc(N3CCC(C(F)(F)F)CC3=O)cc2)C1)N1CC2(CC(c3nnc(C4CC4)[nH]3)C2)C1 (single isomer, unassigned) [compound 280]",3.82 nM
16,O=C(N1CC2(CC(Cc3ccc4ncnn4c3)C2)C1)N1CC2(CC(c3nc(C4CC4)n[nH]3)C2)C1 [compound 645],6.54 nM
17,O=C(N1CC2(CC(Cc3c[nH]c(=O)c(C(F)F)c3)C2)C1)N1CC2(CC(c3nc(C4CC4)n[nH]3)C2)C1 [compound 954],1.42 nM
18,O=C(N1CC2(CC(Cc3ccc(F)cc3C(F)(F)F)C2)C1)N1CC2(CC(c3nnc(C4CC4)[nH]3)C2)C1 [compound 33],0.01 nM
19,O=C(N1CC(OCC2(C(F)(F)F)CC2)C1)N1CC2(CC(c3nnc(C4CC4)[nH]3)C2)C1 [compound 331],109 nM
20,Cn1ncc(C(F)(F)F)c1CC1CC2(C1)CN(C(=O)N1CC3(CC(c4nc(C5CC5)n[nH]4)C3)C1)C2 [compound 691],0.16 nM
21,O=C(N1CC2(CC(c3nc(C4CC4)n[nH]3)C2)C1)N1CC2(CN(Cc3cnc(C(F)F)s3)C2)C1 [compound 651],9.48 nM
22,O=C(N1CC(c2ccc(-n3cnc(C4CC4)n3)cc2)C1)N1CC2(CC(c3nnc(C4CC4)[nH]3)C2)C1 [compound 934],4.44 nM
23,Cc1cc(C(C)(C)C)nn1-c1ccc(C2CN(C(=O)N3CC4(CC(c5nc(C6(O)CC6)n[nH]5)C4)C3)C2)cc1 [compound 820],0.77 nM
24,N#Cc1cc(C(F)(F)F)ncc1C[C@@H]1CCC2(C1)CN(C(=O)N1CC3(CC(c4nnc(C5CC5)[nH]4)C3)C1)C2 [compound 669],0.65 nM
25,O=C(N1CC2(CC(c3nnc(C4CC4)[nH]3)C2)C1)N1CC2(C1)CN(c1ncc(C(F)(F)F)cn1)C2 [compound 694],236 nM
26,CS(=O)(=O)c1cc(Cl)ccc1-c1ccc(C2CN(C(=O)N3CC4(CC(c5nnc(C6CC6)[nH]5)C4)C3)C2)cc1 [compound 337],0.07 nM
27,O=C(N1CC2(CC(Cc3ccc(OC(F)(F)F)cc3)C2)C1)N1CC2(CC(c3nc(C4CC4)n[nH]3)C2)C1 [compound 857],0.02 nM
